Reference: ChEMBL document CHEMBL3396945, “Modified calanolides incorporated with furan-2-nitro mimics against Mycobacterium tuberculosis” (2015)
Values after ≈ are worked out from the molar mass of the structure shown.

How the values were obtained:
[1] = test system: Mycobacterium tuberculosis; assay: microbe, parasite or virus in culture; assay type: functional
[2] = test system: Mycobacterium tuberculosis; assay: microbe, parasite or virus in culture; assay type: functional; remark: listed apart in the source

Structure (SMILES)	MIC [1]	MIC [2]
CCCc1cc(=O)oc2c1c(OCCN1CCOCC1)cc1oc(-c3noc(C)n3)cc12	> 50 µg/mL	> 50 µg/mL
CCCc1cc(=O)oc2c1c(OCCN1CCOCC1)cc1oc(C#N)cc12	> 50 µg/mL	> 50 µg/mL
CCCc1cc(=O)oc2c1c1c(c3oc(C(=O)N=[N+]=[N-])cc32)C=CC(C)(C)O1	> 50 µg/mL	> 50 µg/mL
CCCc1cc(=O)oc2c1c1c(c3oc(NC(=O)OCC)cc32)C=CC(C)(C)O1	> 50 µg/mL	> 50 µg/mL
CCCc1cc(=O)oc2c1c1c(c3oc(C(=O)NNC(=O)c4ccncc4)cc32)C=CC(C)(C)O1	25 µg/mL (≈ 52.8 µM)	> 50 µg/mL
CCCc1cc(=O)oc2c1c(OCCN1CCOCC1)cc1oc(C(=N)N)cc12	> 50 µg/mL	> 50 µg/mL
CCCc1cc(=O)oc2c1c1c(c3oc(C(=O)OCC)cc32)C=CC(C)(C)O1	> 50 µg/mL	> 50 µg/mL
CCCc1cc(=O)oc2c1c(OCCN1CCOCC1)cc1oc(-c3noc(C(F)(F)F)n3)cc12	> 50 µg/mL	> 50 µg/mL
CCCc1cc(=O)oc2c1c(OCCN1CCOCC1)cc1oc(C(=O)O)cc12	> 50 µg/mL	> 50 µg/mL
CCCc1cc(=O)oc2c1c(OCCN1CCOCC1)cc1oc(C(=O)OCC)cc12	> 50 µg/mL	> 50 µg/mL
CCCc1cc(=O)oc2c1c(OCCN1CCOCC1)cc1oc(C(=O)NN)cc12	> 50 µg/mL	> 50 µg/mL
CCCc1cc(=O)oc2c1c1c(c3oc(C#N)cc32)C=CC(C)(C)O1	> 50 µg/mL	> 50 µg/mL
CCCc1cc(=O)oc2c1c1c(c3oc(C(=O)O)cc32)C=CC(C)(C)O1	> 50 µg/mL	> 50 µg/mL
CCCc1cc(=O)oc2c1c1c(c3oc(C(=O)NN)cc32)C=CC(C)(C)O1	50 µg/mL (≈ 136 µM)	> 50 µg/mL
CCCc1cc(=O)oc2c1c(OCCN1CCOCC1)cc1oc(-c3noc(=O)[nH]3)cc12	> 50 µg/mL	> 50 µg/mL
CCCc1cc(=O)oc2c1c(OCCN1CCOCC1)cc1oc(/C(N)=N\O)cc12	> 50 µg/mL	> 50 µg/mL
